Test results as given in the NIST ThermoML archive (doi:10.1016/j.jct.2016.10.033).

Columns and labels:
[1] = 103 kPa, Liquid, Vibrating tube method
[2] = refractive index (Na D-line) (dimensionless); settings: 103 kPa, Liquid, Standard Abbe refractometry
[3] = refractive index (Na D-line) (dimensionless); xn = mol fraction of the nth substance listed; settings: 103 kPa, Liquid, Standard Abbe refractometry, x1 = 1
[4] = xn = mol fraction of the nth substance listed; settings: 103 kPa, Liquid, Vibrating tube method, x1 = 1

CCO[Si](C)(C)OCC [dimethyldiethoxysilane]
Settings	mass density, [1] [kg/m3]	refractive index, [2]
293.15 K	840.11	1.38452
298.15 K	835.43	1.38045
303.15 K	830.05	1.37791
308.15 K	824.66	1.37532
313.15 K	819.23	1.37275
318.15 K	813.79	1.37015

CO[Si](C)(OC)c1ccccc1 [dimethoxymethylphenylsilane] + CCO[Si](C)(C)OCC
Settings	mass density, 298.15 K [kg/m3]	mass density, 303.15 K [kg/m3]	mass density, 308.15 K [kg/m3]	mass density, 313.15 K [kg/m3]	mass density, 318.15 K [kg/m3]	refractive index, 298.15 K	refractive index, 303.15 K	refractive index, 308.15 K	refractive index, 313.15 K	refractive index, 318.15 K
[3]	–	–	–	–	–	1.47763	1.47528	1.47293	1.47061	1.46825
[4]	1000.78	996.13	991.48	986.81	982.15	–	–	–	–	–

CO[Si](C)(OC)c1ccccc1 [dimethoxymethylphenylsilane]
Settings	mass density, 298.15 K [kg/m3]	mass density, 303.15 K [kg/m3]	mass density, 308.15 K [kg/m3]	mass density, 313.15 K [kg/m3]	mass density, 318.15 K [kg/m3]	refractive index, 298.15 K	refractive index, 303.15 K	refractive index, 308.15 K	refractive index, 313.15 K	refractive index, 318.15 K
[1]	1000.78	996.13	991.48	986.81	982.15	–	–	–	–	–
[2]	–	–	–	–	–	1.47763	1.47528	1.47293	1.47061	1.46825

C=C[Si](OC)(OC)OC [trimethoxy(vinyl)silane]
Settings	mass density, 298.15 K [kg/m3]	mass density, 303.15 K [kg/m3]	mass density, 308.15 K [kg/m3]	mass density, 313.15 K [kg/m3]	mass density, 318.15 K [kg/m3]	refractive index, 298.15 K	refractive index, 303.15 K	refractive index, 308.15 K	refractive index, 313.15 K	refractive index, 318.15 K
[1]	965.69	960.02	954.26	948.47	942.63	–	–	–	–	–
[2]	–	–	–	–	–	1.39022	1.38775	1.38535	1.3829	1.38046

C=C[Si](C)(OCC)OCC [methylvinyldiethoxysilane]
Settings	mass density, [1] [kg/m3]	refractive index, [2]
293.15 K	862.21	1.40033
298.15 K	856.25	1.39751
303.15 K	851.09	1.39501
308.15 K	845.89	1.39249
313.15 K	840.71	1.38997
318.15 K	835.44	1.38742

CO[Si](C)(OC)c1ccccc1 [dimethoxymethylphenylsilane] + CO[Si](C)(C)OC
Settings	mass density, 298.15 K [kg/m3]	mass density, 303.15 K [kg/m3]	mass density, 308.15 K [kg/m3]	mass density, 313.15 K [kg/m3]	mass density, 318.15 K [kg/m3]	refractive index, 298.15 K	refractive index, 303.15 K	refractive index, 308.15 K	refractive index, 313.15 K	refractive index, 318.15 K
[3]	–	–	–	–	–	1.47763	1.47528	1.47293	1.47061	1.46825
[4]	1000.78	996.13	991.48	986.81	982.15	–	–	–	–	–

CO[Si](C)(C)OC [dimethoxydimethylsilane]
Settings	mass density, 298.15 K [kg/m3]	mass density, 303.15 K [kg/m3]	mass density, 308.15 K [kg/m3]	mass density, 313.15 K [kg/m3]	mass density, 318.15 K [kg/m3]	refractive index, 298.15 K	refractive index, 303.15 K	refractive index, 308.15 K	refractive index, 313.15 K	refractive index, 318.15 K
[1]	857.9	852.05	846.16	840.22	834.24	–	–	–	–	–
[2]	–	–	–	–	–	1.36816	1.36559	1.36297	1.36035	1.35771

CO[Si](C)(OC)c1ccccc1 [dimethoxymethylphenylsilane] + C=C[Si](OC)(OC)OC
Settings	mass density, 298.15 K [kg/m3]	mass density, 303.15 K [kg/m3]	mass density, 308.15 K [kg/m3]	mass density, 313.15 K [kg/m3]	mass density, 318.15 K [kg/m3]	refractive index, 298.15 K	refractive index, 303.15 K	refractive index, 308.15 K	refractive index, 313.15 K	refractive index, 318.15 K
[3]	–	–	–	–	–	1.47763	1.47528	1.47293	1.47061	1.46825
[4]	1000.78	996.13	991.48	986.81	982.15	–	–	–	–	–

CO[Si](C)(OC)c1ccccc1 [dimethoxymethylphenylsilane] + C=C[Si](C)(OCC)OCC
Settings	mass density, 298.15 K [kg/m3]	mass density, 303.15 K [kg/m3]	mass density, 308.15 K [kg/m3]	mass density, 313.15 K [kg/m3]	mass density, 318.15 K [kg/m3]	refractive index, 298.15 K	refractive index, 303.15 K	refractive index, 308.15 K	refractive index, 313.15 K	refractive index, 318.15 K
[3]	–	–	–	–	–	1.47763	1.47528	1.47293	1.47061	1.46825
[4]	1000.78	996.13	991.48	986.81	982.15	–	–	–	–	–
